# Data as given in article PMC11359809, “Probing the molecular basis for signal transduction through the Zinc-Activated Channel (ZAC)” (Biochemical pharmacology, 2021).
# Key:
# [1] = target: T1, WT m5-HT3AR (Mus musculus, UniProt P23979); assay: TEVC in Xenopus oocytes expressing WT m5-HT3AR; type: cell-based; details: 5-HT 30 μM
# T1 construct: expressed in transfected cells; host or cells: Xenopus oocytes injected with cRNA (pUNIV vector)
# T1 sequence (P23979 24-489): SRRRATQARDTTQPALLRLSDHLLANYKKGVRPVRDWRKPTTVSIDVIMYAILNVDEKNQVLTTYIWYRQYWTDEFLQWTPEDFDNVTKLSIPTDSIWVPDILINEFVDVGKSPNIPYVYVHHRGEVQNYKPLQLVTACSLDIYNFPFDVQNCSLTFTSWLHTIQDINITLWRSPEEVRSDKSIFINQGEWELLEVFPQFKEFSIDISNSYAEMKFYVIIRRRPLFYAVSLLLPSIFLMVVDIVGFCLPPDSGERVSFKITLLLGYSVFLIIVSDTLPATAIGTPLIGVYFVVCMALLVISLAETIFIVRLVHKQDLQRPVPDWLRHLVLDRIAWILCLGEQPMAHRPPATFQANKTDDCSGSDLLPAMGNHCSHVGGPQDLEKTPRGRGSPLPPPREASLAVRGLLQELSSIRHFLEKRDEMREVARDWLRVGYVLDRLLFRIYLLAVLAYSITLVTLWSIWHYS
# Experimental: (§1) The recordings were performed at room temperature.
# (§2) Analysis of the data from the TEVC recordings were performed using Clampfit software version 10.5 (Molecular Devices, Crawley, UK) and GraphPad Prism version 7.0c (GraphPad Software, La Jolla, CA). Unless otherwise stated, the inward currents induced by agonists in oocytes were normalized to the maximal response elicited by a specific agonist (agonist Imax) on each oocyte. Concentration-response and concentration-inhibition curves were fitted in GraphPad Prism by nonlinear regression using the equation for sigmoidal dose-response with variable slope. Each data point represents the mean ± S.E.M. value of recordings performed on at least five oocytes in total from at least two different batches. For the data where statistical analysis was performed, a one-way ANOVA was used. The null hypothesis was rejected at P < 0.05, and the differences between the means were analyzed by Tukey’s multiple comparisons test.
# [2] = system: ZAC/hα1-Gly; assay: TEVC in oocytes expressing ZAC/hα1-Gly chimera; type: cell-based, human
# Experimental: as §1, §2
# Initially, we constructed four chimeric subunits fusing the ZAC ECD or TMD-ICD with the complementary domains from either the m5-HT3A or the hα1 GlyR subunit: ZAC/m5-HT3A, m5-HT3A/ZAC, ZAC/hα1-Gly and hα1-Gly/ZAC (Fig. 1A). […] (Fig. 1A).
# [3] = target: T2, ZAC^D116A/DH8A/H210A (Homo sapiens, UniProt Q401N2, A152T/D140A/D142A/H144A); assay: TEVC in oocytes, Cluster 1 triple mutant; type: cell-based; details: 10 mM Zn^2+
# T2 construct: expressed in transfected cells; host or cells: Xenopus oocytes injected with cRNA (pUNIV vector)
# Experimental: as §1
# as §2, with “For the data where statistical analysis was performed, a one-way ANOVA was used.” left out
# (§3) The putative involvement of candidate residues in Clusters 1, 2, 3 and 4 in Zn^2+ binding to ZAC was investigated in by an elaborate alanine mutagenesis scanning. […] The determined IpH 4.0 value was used in part as a control and in part to enable the distinction of ZAC mutants non-responsive to Zn^2+ due to elimination of their ability to bind the metal ion from those where the mutation had eliminated cell surface expression and/or disrupted overall functionality of the receptor complex. […]
# [4] = system: ZAC^H120L; assay: TEVC in oocytes, ZAC H120L mutant; type: cell-based, human; details: agonist
# Experimental: as §1
# as §2, with “For the data where statistical analysis was performed, a one-way ANOVA was used.” left out
# as §3
# [5] = system: ZAC^H120F; assay: TEVC in oocytes, ZAC H120F mutant; type: cell-based, human; details: agonist
# Experimental: as §1
# as §2, with “For the data where statistical analysis was performed, a one-way ANOVA was used.” left out
# as §3
# [6] = target: T3, ZAC^H139A (Homo sapiens, UniProt Q401N2, A152T/H163A); assay: TEVC in oocytes, ZAC H139A mutant; type: cell-based
# T3 construct: expressed in transfected cells; host or cells: Xenopus oocytes injected with cRNA (pUNIV vector)
# Experimental: as §1
# as §2, with “For the data where statistical analysis was performed, a one-way ANOVA was used.” left out
# as §3
# [7] = target: T4, ZAC^E24A/E89A/D105A/D108A/E130A (Homo sapiens, UniProt Q401N2, A152T/D129A/D132A/E113A/E154A/E48A); assay: TEVC in oocytes, Cluster 3 quintuple mutant; type: cell-based; details: H^+ pH 4.0; Zn^2+ 10 mM; data not shown
# T4 construct: expressed in transfected cells; host or cells: Xenopus oocytes injected with cRNA (pUNIV vector)
# Experimental: as §1
# as §2, with “For the data where statistical analysis was performed, a one-way ANOVA was used.” left out
# as §3
# [8] = target: T5, ZAC^D105A/D108A (Homo sapiens, UniProt Q401N2, A152T/D129A/D132A); assay: TEVC in oocytes, ZAC D105A/D108A mutant; type: cell-based; details: 10 mM Zn^2+; data not shown
# T5 construct: expressed in transfected cells; host or cells: Xenopus oocytes injected with cRNA (pUNIV vector)
# Experimental: as §1
# as §2, with “For the data where statistical analysis was performed, a one-way ANOVA was used.” left out
# as §3
# [9] = target: T6, ZAC^L9′A (Homo sapiens, UniProt Q401N2, A152T/L270A); assay: TEVC in oocytes, ZAC L9′A mutant; type: cell-based; details: agonist; n = 7
# T6 construct: expressed in transfected cells; host or cells: Xenopus oocytes injected with cRNA (pUNIV vector)
# T6 sequence (Q401N2 26-412 A152T/L270A): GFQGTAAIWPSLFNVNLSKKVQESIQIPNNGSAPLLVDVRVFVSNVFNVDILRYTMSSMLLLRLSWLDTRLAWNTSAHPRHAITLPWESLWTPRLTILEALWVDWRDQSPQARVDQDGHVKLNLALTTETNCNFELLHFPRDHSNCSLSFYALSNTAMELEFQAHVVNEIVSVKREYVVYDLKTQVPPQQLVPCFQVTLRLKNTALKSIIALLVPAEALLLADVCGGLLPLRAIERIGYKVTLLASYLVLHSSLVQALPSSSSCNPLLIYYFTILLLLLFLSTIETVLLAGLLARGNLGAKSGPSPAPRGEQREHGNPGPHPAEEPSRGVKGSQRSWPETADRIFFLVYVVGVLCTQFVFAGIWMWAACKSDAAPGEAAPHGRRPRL
# Experimental: as §1, §2
# [10] = target: T7, ZAC^H82A/H120F (Homo sapiens, UniProt Q401N2, A152T/H106A/H144F); assay: TEVC in oocytes, ZAC H82A/H120F mutant; type: cell-based; details: parallel recordings, same oocyte batches
# T7 construct: expressed in transfected cells; host or cells: Xenopus oocytes (cRNA injection, pUNIV vector)
# Experimental: as §1
# as §2, with “For the data where statistical analysis was performed, a one-way ANOVA was used.” left out
# as §3
# [11] = sustained (4 min) application of 30 μM Zn^2+
# T7 sequence (Q401N2 26-412 H106A/H144F/A152T): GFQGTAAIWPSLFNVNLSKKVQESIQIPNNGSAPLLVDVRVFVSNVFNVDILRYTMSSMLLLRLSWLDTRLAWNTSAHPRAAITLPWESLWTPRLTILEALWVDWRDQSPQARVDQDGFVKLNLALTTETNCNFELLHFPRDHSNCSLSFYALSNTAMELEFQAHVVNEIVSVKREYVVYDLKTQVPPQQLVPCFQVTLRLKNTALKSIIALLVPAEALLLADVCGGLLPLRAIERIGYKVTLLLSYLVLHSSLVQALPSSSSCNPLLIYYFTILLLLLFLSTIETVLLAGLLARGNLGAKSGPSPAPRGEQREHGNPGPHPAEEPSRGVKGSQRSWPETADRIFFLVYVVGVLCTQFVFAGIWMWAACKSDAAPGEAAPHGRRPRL
# T3 sequence (Q401N2 26-412 A152T/H163A): as the sequence (Q401N2 26-412 H106A/H144F/A152T) above, with A81H, F119H, H138A counted along it
# T2 sequence (Q401N2 26-412 D140A/D142A/H144A/A152T): as the sequence (Q401N2 26-412 H106A/H144F/A152T) above, with A81H, D115A, D117A, F119A counted along it
# T5 sequence (Q401N2 26-412 D129A/D132A/A152T): as the sequence (Q401N2 26-412 H106A/H144F/A152T) above, with A81H, D104A, D107A, F119H counted along it
# T4 sequence (Q401N2 26-412 E48A/E113A/D129A/D132A/A152T/E154A): as the sequence (Q401N2 26-412 H106A/H144F/A152T) above, with E23A, A81H, E88A, D104A, D107A, F119H, E129A counted along it
smiles,measurement,setting,value
"[Cl-].[Cl-].[Zn+2] [Zn^2+, ZnCl2]",modulation of 5-HT (EC80)-evoked currents,[1],potentiated the 5-HT-induced response through WT m5-HT3AR at low-micromolar concentrations and inhibited it at higher concentrations
same,Imax (current amplitude evoked by saturating agonist),"[2]; 30 μM Zn^2+, n = 11",0.24 ± 0.03 μA
same,nH ± S.E.M. (Hill slope),"[2]; agonist, n = 10",1.6 ± 0.4
same,pEC50 ± S.E.M.,"[2]; agonist, n = 10",5.36 ± 0.09
same,left-shift of concentration-response relationship (higher agonist potency),[2]; compared to WT ZAC,~100 fold
same,"Iresidual, 4 min",[2]; [11],63 ± 6 % of Ipeak
same,Δtpeak-to-plateau,[2]; [11],56 ± 3.8 s
same,Δtstart-to-peak,[2]; [11],10 ± 1.9 s
same,I10 mM Zn2+ range,[3],10–30 nA
same,fitted EC50 relative to WT ZAC (higher),[4],~ 3 fold
same,fitted EC50 relative to WT ZAC (higher),[5],~ 3 fold
same,functional properties as agonist compared to WT ZAC,[6],not altered significantly
same,agonist responsiveness,[7],non-responsive
same,agonist responsiveness,[8],non-responsive
same,EC50,[9],230 µM
same,nH ± S.E.M. (Hill slope),[9],1.2 ± 0.2
same,pEC50 ± S.E.M.,[9],3.64 ± 0.08
same,ability to elicit ZAC signalling compared to WT ZAC,[10],did not appear to impair
